Experimental data as given in patent US7071168B2, “Anti-cancer compounds and methods related thereto” (The Regents of the University of Colorado, priority 1998, dated 2006).

Each molecule was assayed on bradykinin response of isolated guinea pig ileum (assay: Anti-bradykinin activity on isolated guinea pig ileum). Details: Table 1; higher numbers indicate higher potency.
Method: In general, Anti-bradykinin activity was determined by the classical guinea pig ileum assay and on Chinese hamster ovary (CHO) cells expressing cloned human bradykinin B2 receptors. Anti-tumor activity was determined on cultured human cancer cell lines using the standard tetrazolium (MTT) assay.
Male Hartley guinea pigs that had been deprived of food overnight were sacrificed, and sections of terminal ileum, 25 mm in length, were dissected, attached to tissue holders and immersed in 10 ml tissue baths containing Krebs' solution bubbled with 95% O2/5% CO2. Tissues were placed under 1 g tension and incubated for 1 h equilibration. Concentration-effect curves were constructed to bradykinin in the absence and presence of new compounds.
With `N=C(N)NCCCC(NC(=O)C=Cc1c(F)c(F)c(F)c(F)c1F)C(=O)O` (stereo not drawn) [M370, F5c-Arg] the “GPI: pA2 for bradykinin antagonist activity on isolated guinea pig ileum” value (from here on “GPI: pA2”) was 4.8.
In the case of `N=C(N)NCCCC(NC(=O)C=Cc1ccc(C(F)(F)F)cc1)C(=O)O` (stereo not drawn) [M374, Tfmc-Arg], the “GPI: pA2” value is reported as 4.6.
In the case of “Aaa-DArg-Arg-Pro-Hyp-Gly-(D,L)DMF-Ser-DTic-Oic-Arg [B9126-2]”, the “GPI: pA2” value is reported as 7.3.
In the case of “Aaa-DArg-Arg-Pro-Hyp-Gly-(D,L)DMF-Ser-DTic-Oic-Arg [B9126]”, the “GPI: pA2” value is reported as 6.4.
In the case of Aaa-DIgl-hPhe-Arg [M772], the “GPI: pA2” value is reported as 4.9.
Aaa-DTic-hPhe-Arg [M764] was tested, and the “GPI: pA2” value was 4.8.
For Ac-PaF(Dcg)-p-ABz-Arg [M146-2], the “GPI: pA2” value was 4.9.
In the case of Ac-PaF(Mcg)-Arg [M118-1], the “GPI: pA2” value is reported as 4.9.
With Ac-PaF(Mcg)-p-ABz-Arg [M146-1] the “GPI: pA2” value was “Inact”.
With Ac-Pac-Gly-m-Abz-2-Nal-Arg [M198] the “GPI: pA2” value was 5.1.
Ac-PdF-Arg [M118-3] was tested, and the “GPI: pA2” value was 5.4.
For “Aca-DArg-Arg-Pro-Hyp-Gly-Thi-Ser-(D,L)Igl-Oic-Arg [B9224-2]”, the “GPI: pA2” value was 8.4.
For Arg-Eac-DIgl-Ana-Arg [M406], the “GPI: pA2” value was “Inact”.
In the case of “DArg-Arg-NMF-Hyp-Gly-Thi-Ser-DIgl-Oic-Arg [B9966]”, the “GPI: pA2” value is reported as 6.9.
“DArg-Arg-Nig-Hyp-Gly-Igl-Ser-DIgl-Oic-Arg [B9960]” was tested, and the “GPI: pA2” value was 7.7.
In the case of “DArg-Arg-Pro-Hyp-Gly-CpG-Ser-DCpG-CpG-Arg [B8838]”, the “GPI: pA2” value is reported as 7.0.
In the case of “DArg-Arg-Pro-Hyp-Gly-Igl-Ser-DIgl-Nc7G-Arg [B10010]”, the “GPI: pA2” value is reported as 7.7.
“DArg-Arg-Pro-Hyp-Gly-Phe-Ser-DCpG-CpG-Arg [B8840]” was tested, and the “GPI: pA2” value was 6.8.
In the case of “DArg-Arg-Pro-Hyp-Gly-Thi-Ser-CpG-DCpG-DArg [B8858]”, the “GPI: pA2” value is reported as 5.2.
With “DArg-Arg-Pro-Hyp-Gly-Thi-Ser-DTic-Nc6G-Arg [B10014]” the “GPI: pA2” value was 7.6.
With DDD-(DArg-hPhe-Arg)2 [M554] the “GPI: pA2” value was 5.1.
For DDD-(Eac-Arg-Digl-Oic-Arg)2 [B10198-1], the “GPI: pA2” value was 5.7.
Dcg-2-Nal-Atpc-Arg [M232-3] was tested, and the “GPI: pA2” value was 5.1.
For Dcg-2Nal-Arg [M10], the “GPI: pA2” value was 4.8.
For Dcg-(D,L)Ata-Arg [M96], the “GPI: pA2” value was 4.7.
Dcg-Ac6c-Arg [M86] was tested, and the “GPI: pA2” value was 5.0.
In the case of Dcg-Apa-Arg [M78], the “GPI: pA2” value is reported as 5.6.
For Dcg-Atpc-Arg [M232-1], the “GPI: pA2” value was 4.7.

Same assay, conditions: isolated guinea pig ileum; pD2 of bradykinin is 7.4; higher numbers indicate higher potency
In the case of `O=C(O)CC(NC(=O)C(Cc1ccc2ccccc2c1)NC(=NC1CCCCC1)NC1CCCCC1)C(=O)NC1CN2CCC1CC2` (single isomer, unassigned) [M336-1], the “GPI: pA2” value is reported as 5.1.
`O=C(O)CC(NC(=O)C(Cc1ccc2ccccc2c1)NC(=NC1CCCCC1)NC1CCCCC1)C(=O)NC1CN2CCC1CC2` (single isomer, unassigned) [M336-2] was tested, and the “GPI: pA2” value was 5.4.
In the case of `N=C(N)NCCCCCC(=O)NC(Cc1ccc2ccccc2c1)C(=O)NC(Cc1ccc(NC(=N)N)cc1)C(=O)O` (stereo not drawn) [M8], the “GPI: pA2” value is reported as “Inact”.
For `O=C(O)Cc1ccc(NC(=O)C(Cc2ccc3ccccc3c2)NC(=NC2CCCCC2)NC2CCCCC2)cc1` (stereo not drawn) [M30], the “GPI: pA2” value was 5.4.
For `N=C(N)NC(Cc1ccc2ccccc2c1)C(=O)Nc1ccc(CC(=O)O)cc1` (stereo not drawn) [M32], the “GPI: pA2” value was 4.8.
With `O=C(O)Cc1ccc(NC(=O)C(Cc2ccc3ccccc3c2)NC(=NC2CCCCC2)NC2CCCCC2)cc1` (stereo not drawn) [M36] the “GPI: pA2” value was 5.0.
`N=C(N)NC(Cc1ccc2ccccc2c1)C(=O)Nc1ccc(CC(=O)O)cc1` (stereo not drawn) [M38] was tested, and the “GPI: pA2” value was 4.9.
In the case of `O=C(O)Cc1ccc(NC(=O)C(NC(=NC2CCCCC2)NC2CCCCC2)C2Cc3ccccc3C2)cc1` (stereo not drawn) [M72-1], the “GPI: pA2” value is reported as 4.7.
With `O=C(O)c1cccc(NC(=O)C(Cc2ccc3ccccc3c2)NC(=NC2CCCCC2)NC2CCCCC2)c1` (stereo not drawn) [M76] the “GPI: pA2” value was 4.9.
For `Nc1cc(NC(=O)C(Cc2ccc3ccccc3c2)NC(=NC2CCCCC2)NC2CCCCC2)cc(C(=O)O)c1` (stereo not drawn) [M92-1], the “GPI: pA2” value was 5.0.
In the case of `N=C(N)Nc1cc(NC(=O)C(Cc2ccc3ccccc3c2)NC(=NC2CCCCC2)NC2CCCCC2)cc(C(=O)O)c1` (stereo not drawn) [M92-2], the “GPI: pA2” value is reported as 4.8.
`O=C(O)c1cc(NC(=O)C(Cc2ccc3ccccc3c2)NC(=NC2CCCCC2)NC2CCCCC2)cc(NC(=NC2CCCCC2)NC2CCCCC2)c1` (stereo not drawn) [M92-4] was tested, and the “GPI: pA2” value was 5.0.
For `O=C(O)C(Cc1cccnc1)NC(=O)C(Cc1ccc2ccccc2c1)NC(=NC1CCCCC1)NC1CCCCC1` (stereo not drawn) [M104], the “GPI: pA2” value was 4.9.
With `O=C(O)c1cccc(NC(=O)C(Cc2ccc3ccccc3c2)NC(=NC2CCCCC2)NC2CCCCC2)c1` (stereo not drawn) [M112] the “GPI: pA2” value was 5.1.
`O=C(O)c1ccc(NC(=O)C(Cc2ccc3ccccc3c2)NC(=NC2CCCCC2)NC2CCCCC2)cc1` (stereo not drawn) [M120] was tested, and the “GPI: pA2” value was 4.7.
`N=C(Nc1ccc(CC(=O)Nc2cccc(C(=O)O)c2)cc1)NC1CCCCC1` [M122-1] was tested, and the “GPI: pA2” value was 5.0.
With `O=C(Cc1ccc(NC(=NC2CCCCC2)NC2CCCCC2)cc1)Nc1cccc(C(=O)O)c1` [M122-2] the “GPI: pA2” value was 4.6.
In the case of `COc1cc(C=CC(=O)NC(Cc2c(F)c(F)c(F)c(F)c2F)C(=O)NC(Cc2cccnc2)C(=O)O)cc(OC)c1O` (stereo not drawn) [M136], the “GPI: pA2” value is reported as “Inact”.
With `O=C(O)CC(NC(=O)C(Cc1ccc2ccccc2c1)NC(=NC1CCCCC1)NC1CCCCC1)C(=O)O` (stereo not drawn) [M162] the “GPI: pA2” value was 4.9.
With `N=C(Nc1ccc(CC(NC(=O)c2ccc3ccccc3c2)C(=O)O)cc1)NC1CCCCC1` (stereo not drawn) [M168-1] the “GPI: pA2” value was 4.8.
`O=C(NC(Cc1ccc(NC(=NC2CCCCC2)NC2CCCCC2)cc1)C(=O)O)c1ccc2ccccc2c1` (stereo not drawn) [M168-2] was tested, and the “GPI: pA2” value was 4.7.
`O=C(NC(CNC(=O)C(Cc1ccc2ccccc2c1)NC(=NC1CCCCC1)NC1CCCCC1)C(=O)O)C1CCNCC1` (stereo not drawn) [M172] was tested, and the “GPI: pA2” value was 4.9.
For `O=C(O)CC(NC(=NC1CCCCC1)NC1CCCCC1)C(=O)NC1CN2CCC1CC2` (stereo not drawn) [M174], the “GPI: pA2” value was “Inact”.
`O=C(C=Cc1c(F)c(F)c(F)c(F)c1F)Nc1ccc(C(=O)N[C@@H](Cc2ccc3ccccc3c2)C(=O)O)cc1` [M180] was tested, and the “GPI: pA2” value was 5.1.
In the case of `O=C(C[C@H](NC(=O)[C@H](Cc1ccc2ccccc2c1)NC(=NC1CCCCC1)NC1CCCCC1)C(=O)O)NC1CN2CCC1CC2` (stereo partly drawn) [M188B], the “GPI: pA2” value is reported as 5.5.
`O=C(C=Cc1c(F)c(F)c(F)c(F)c1F)NCC(=O)Nc1cccc(C(=O)N[C@@H](Cc2ccc3ccccc3c2)C(=O)O)c1` [M202] was tested, and the “GPI: pA2” value was 5.1.
`CC(=O)Nc1ccc(C=CC(=O)NCC(=O)Nc2cccc(C(=O)NC(Cc3ccc4ccccc4c3)C(=O)O)c2)cc1` (stereo not drawn) [M204] was tested, and the “GPI: pA2” value was 5.0.
`CC1(C)CC(NC(=O)[C@H](Cc2ccc3ccccc3c2)NC(=O)C23CC4CC(CC(C4)C2)C3)CC(C)(C)N1` [M250] was tested, and the “GPI: pA2” value was 5.2.
In the case of `CC1(C)CC(NC(=O)[C@@H](NC(=NC2CCCCC2)NC2CCCCC2)C2Cc3ccccc3C2)CC(C)(C)N1Cc1ccccc1` [M258], the “GPI: pA2” value is reported as 5.0.
In the case of `CC1(C)C=C(C(=O)NCCNC(=O)[C@H](Cc2ccc3ccccc3c2)NC(=NC2CCCCC2)NC2CCCCC2)C(C)(C)N1` [M270], the “GPI: pA2” value is reported as 6.1.
With `O=C(C=Cc1ccc(NC(=NC2CCCCC2)NC2CCCCC2)cc1)NCC(=O)Nc1cccc(C(=O)NC(Cc2ccc3ccccc3c2)C(=O)O)c1` (stereo not drawn) [M340] the “GPI: pA2” value was 4.8.
In the case of `CC1(C)CC(NC(=O)C(CC(=O)O)NC(=O)C(Cc2ccc3ccccc3c2)NC(=NC2CCCCC2)NC2CCCCC2)CC(C)(C)N1` (stereo not drawn) [M342], the “GPI: pA2” value is reported as 5.4.
In the case of `CC1(C)CC(NC(=O)C(CCC(=O)O)NC(=O)C(Cc2ccc3ccccc3c2)NC(=NC2CCCCC2)NC2CCCCC2)CC(C)(C)N1` (stereo not drawn) [M350], the “GPI: pA2” value is reported as 5.0.
`N=C(N)Nc1ccc(CC(NC(=O)C(Cc2ccc3ccccc3c2)NC(=NC2CCCCC2)NC2CCCCC2)C(=O)O)cc1` (stereo not drawn) [M354] was tested, and the “GPI: pA2” value was 5.2.
For `CC1(C)CC(NC(=O)C(CC(=O)O)NC(=O)Cc2ccc(NC(=NC3CCCCC3)NC3CCCCC3)cc2)CC(C)(C)N1` (stereo not drawn) [M362], the “GPI: pA2” value was 4.9.
For `CC1(C)CC(NC(=O)C(CC(=O)O)NC(=O)Cc2ccc(NC(=O)C=Cc3c(F)c(F)c(F)c(F)c3F)cc2)CC(C)(C)N1` (stereo not drawn) [M364], the “GPI: pA2” value was 4.7.
`CC1(C)CC(NC(=O)C(CC(=O)O)NC(=O)Cc2ccc(NC(=O)C=Cc3ccc(C(F)(F)F)cc3)cc2)CC(C)(C)N1` (stereo not drawn) [M368] was tested, and the “GPI: pA2” value was 4.7.
With `CN1CCN(NC(=O)[C@H](Cc2ccc3ccccc3c2)NC(=O)C=Cc2ccc(NC(=O)CCCCCCCCCCC(=O)Nc3ccc(C=CC(=O)N[C@@H](Cc4ccc5ccccc5c4)C(=O)NN4CCN(C)CC4)cc3)cc2)CC1` [M480-2] the “GPI: pA2” value was 5.6.
